Experiments:
Format in all cases: cell-based
[1] = tested on: NG108-15 cells; assay: Neurite crossing of laminin/aggrecan (CSPG) boundary after protein transduction; details: for neurite extension across laminin/CSPG boundary: vs controls
Source text: We developed a second model to observe the effects of substrate-bound GAGs or CSPGs on neurite extension. Briefly, alternating lanes of the CSPG aggrecan and laminin were created on 60 mm diameter tissue culture dishes using a modified version of the Bonhoeffer method. Thus, neurite extension of cells across laminin/CSPG boundaries could be observed in these coated tissue culture dishes. Such laminin/CSPG coated dishes were used for the experiments summarized in the following examples and in FIGS. 7-10.
NG108-15 cells (available from ATCC, Manassas, Va.) were removed from culture flasks and resuspended in Neurobasal-A media (Invitrogen, Carlsbad, Calif.) supplemented with N-2, L-glutamine, and 1% penicillin/streptomycin. 2×10^4 NG108-15 cells were added to a laminin/CSPG coated dish as described in Example 8. After approximately 4 hours, the cells formed lanes adhering to the laminin lanes. The ability of the cells to migrate and/or extend processes across the laminin/CSPG boundary was then assessed following transduction of the cells with control proteins, with various Class I activator proteins, or with a Class 2 inhibitor protein.
Cells were transduced using the CHARIOT protein transduction system with any one of the following: GST control alone, activated Cdc42-GST, dominant negative Cdc42-GST, activated Rac1-GST, dominant negative Rac1-GST, activated RhoA-GST, or the RhoA inhibitor C3 transferase (Cytoskeleton, Denver, Colo.). The activated and dominant negative variants used for these experiments were as following: activated Cdc42=Q61L Cdc42, dominant negative Cdc42=T17N Cdc42, activated Rac1=Q61L Rac1, dominant negative Rac1=T17N […], activated RhoA=Q63 L RhoA. Following protein transduction, cells were placed in humidified incubators at 37° C., and 5% CO2 and were […] after 48 hours.

[2] = tested on: E9 chick DRG; assay: Three-dimensional layered agarose gel, neurite crossing of gel interfaces; details: for percentage of DRG neurites that cross the interface between 2 layers: interface of 1% agarose and 2% agarose modified with chondroitin sulfate, compared to non-GAG agarose interface, FIG. 3
Source text: This three-dimensional system allows observation of neuronal cell behavior at gel interfaces. In this example, layer 1 is a control interface composed of 1% agarose, layer 2 contains the neuronal explant, in this case an explant of dorsal root ganglia (DRG) in 1% agarose, and layer 3 is 2% agarose containing chondroitin sulfate-B. The layer 1/layer 2 interface provides a control agarose/agarose interface, while the layer 2/layer 3 interface provides an agarose/CS-GAG rich agarose interface. The ability of neurites to cross the interface between layer 2/layer 3 can be measured.
Agarose gels were made by dissolving SeaPrep agarose (FMC Corp) in pH 7.4 PBS. Agarose solutions were sterilized by p assing through a 0.45 u m filter, gelled and stored at 4° C. Prior to use, the gels were degelled at 65° C., cooled to 37° C., and gelled.
For construction of three dimensional system, agarose gels were layered in a rectangular culture dish. 1% liquid agarose was poured into the dish, and chilled to allow layer 1 to gel. After layer 1 had gelled, liquid agarose containing several E9 chick DRG were poured onto layer 1, and chilled to form layer 2. After layer 2 had gelled, 2% liquid agarose containing chondroitin sulfate-B was poured onto layer 2 and chilled to form layer 3.
To maintain the cells in this culture system, culture medium consisting of DMEM supplemented with 10% fetal bovine serum, 1% penicillin-streptomycin, and 50 ng/mL nerve growth factor was added to the top of the gel.
The ability of neuronal cells to extend processes across the interfaces was quantified by determining the percentage of neurites that successfully crossed the interface using light microscopy.

[3] = tested on: NG108 cells; assay: Two dimensional coverslip with alternating stripes of chondroitin sulfate, crossing of short axis; details: protein delivered with Chariot protein transduction system; unmodified cells less than 10%; FIG. 5A
Source text: We developed a two-dimensional model to observe the effects of substrate-bound GAGs or CSPGs on neurite extension. Briefly, the surfaces of glass coverslips were modified using 3-aminopropyltriethoxysilane, which binds amines to the surface. Through a two-step covalent coupling procedure, chondroitin sulfate C(CS-C) was crosslinked to the amines on the surface of the coverslip. First, CS-C was linked to EDAC, a zero-length crosslinker, that reacts with amine groups. With the aid of the Bonhoeffer matrix the CS-C-EDAC solution was passed into the microchannels incubated at room temperature for 30 minutes and removed. This process was repeated three additional times with fresh CS-C-EDAC solution. The CS-C covalently couple to the amines on the modified coverslip via the EDAC.
The coverslips were sonicated for 5 minutes to remove any CS-C that was not covalently bound to the coverslip. The coverslips were sterilized in 70% ethanol, and 15,000 cells were seeded on top of the micropatterned area and incubated at 37° C., 5% CO2. The behavior of the seeded cells can now be examined in the presence or absence of agents which either influence the cells themselves (e.g., Class I activators, Class II inhibitors, etc.) or agents which alter the CS-C. […]

[4] = Chariot transduction, imaged after 48 hours, vs untransduced or GST alone, FIG. 7

Q: With C3 transferase as the substance, how does the “neurite extension across laminin/CSPG boundary” value ([1]; 2 μg/mL, FIG. 10) read?
A: statistically significant

Q: And the “neurite extension across laminin/CSPG boundary” value ([1]; 4 μg/mL, FIG. 10)?
A: statistically significant

Q: And the “percentage of neurites that cross a laminin/aggrecan boundary” value [1, 4]?
A: statistically significant increase

Q: And the “dose dependence of neurite crossing of laminin/aggrecan boundary” value ([1]; various concentrations, in the presence of Chariot, FIG. 10)?
A: statistically significant and dose dependent increase

Q: With “activated RhoA: Q63L RhoA constitutively active Rho family GTPase variant, GST protein” as the substance, how does the “percentage of neurites that cross a laminin/aggrecan boundary” value [1, 4] read?
A: did not significantly promote

Q: For chondroitin-sulfate B, which “percentage of DRG neurites that cross the interface between 2 layers” value [2] is on record?
A: statistically significant decrease

Q: And the “percentage of DRG neurites that cross the interface between 2 layers” value ([2]; listed as CS-GAG)?
A: significantly inhibited

Q: What about the “extension of neuronal processes at the layer 2/layer 3 interface” value ([2]; layer 3 is 2% agarose modified with chondroitin sulfate B, FIG. 2C) of the same substance?
A: inhibited

Q: How did the “percentage of neurites that cross a laminin/aggrecan boundary” value ([1]; 4 μg/mL, Chariot transduction, vs untransduced cells, FIG. 8) turn out when “constitutively active Cdc42: Q61L mutation of human Cdc42 (SEQ ID NO: 2), constitutively active Rho family GTPase protein, delivered by Chariot protein transduction” was run?
A: statistically significant increase

Q: What about the “dose dependence of neurite extension across laminin/CSPG boundary” value ([1]; 1, 2, 3, 4 μg/mL, Chariot transduction, FIG. 8) of the same substance?
A: dose dependent increase

Q: And the “percentage of neurites that cross a laminin/aggrecan boundary” value [1, 4]?
A: statistically significant increase

Q: What about the “percentage of NG108 cells that cross the short axis of chondroitin sulfate GAG coverslip” value [3] of the same substance?
A: approximately 50%

Q: Which “percentage of neurites that cross a laminin/aggrecan boundary” value [1, 4] does the source give for “dominant negative Cdc42: T17N Cdc42 dominant negative Rho family GTPase variant, GST protein” here?
A: did not significantly promote

Reference: US7749496B2, “Neuronal regeneration” (Case Western Reserve University, priority 2001, dated 2010)
